The target in one assay is T1, T1R2-TMD (Homo sapiens, UniProt Q8TE23).
T1 sequence (Q8TE23 564-839): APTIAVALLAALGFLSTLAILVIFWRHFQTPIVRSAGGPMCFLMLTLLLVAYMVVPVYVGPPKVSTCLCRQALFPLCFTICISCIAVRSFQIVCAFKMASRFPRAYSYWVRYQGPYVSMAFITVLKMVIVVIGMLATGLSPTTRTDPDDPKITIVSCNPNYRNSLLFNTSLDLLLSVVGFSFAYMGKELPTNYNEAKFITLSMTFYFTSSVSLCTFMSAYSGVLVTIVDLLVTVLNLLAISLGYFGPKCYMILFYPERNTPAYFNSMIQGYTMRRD

In a further assay the test system is HEK293T/Gα16gust44 cells. As to the kind of experiment: Fluo-4 calcium assay, negative control cells expressing Gα16gust44 only (mock transfected). Type of assay: cell-based, human.
The next assay concerns the target T2, hCaSR (Homo sapiens, UniProt P41180).
T2 construct: full length cDNAs encoding the human CaSR (commercially available from Origene Inc., USA); host or cells: HEK293T cells stably expressing Galpha16gust44
T2 sequence (P41180 20-1078): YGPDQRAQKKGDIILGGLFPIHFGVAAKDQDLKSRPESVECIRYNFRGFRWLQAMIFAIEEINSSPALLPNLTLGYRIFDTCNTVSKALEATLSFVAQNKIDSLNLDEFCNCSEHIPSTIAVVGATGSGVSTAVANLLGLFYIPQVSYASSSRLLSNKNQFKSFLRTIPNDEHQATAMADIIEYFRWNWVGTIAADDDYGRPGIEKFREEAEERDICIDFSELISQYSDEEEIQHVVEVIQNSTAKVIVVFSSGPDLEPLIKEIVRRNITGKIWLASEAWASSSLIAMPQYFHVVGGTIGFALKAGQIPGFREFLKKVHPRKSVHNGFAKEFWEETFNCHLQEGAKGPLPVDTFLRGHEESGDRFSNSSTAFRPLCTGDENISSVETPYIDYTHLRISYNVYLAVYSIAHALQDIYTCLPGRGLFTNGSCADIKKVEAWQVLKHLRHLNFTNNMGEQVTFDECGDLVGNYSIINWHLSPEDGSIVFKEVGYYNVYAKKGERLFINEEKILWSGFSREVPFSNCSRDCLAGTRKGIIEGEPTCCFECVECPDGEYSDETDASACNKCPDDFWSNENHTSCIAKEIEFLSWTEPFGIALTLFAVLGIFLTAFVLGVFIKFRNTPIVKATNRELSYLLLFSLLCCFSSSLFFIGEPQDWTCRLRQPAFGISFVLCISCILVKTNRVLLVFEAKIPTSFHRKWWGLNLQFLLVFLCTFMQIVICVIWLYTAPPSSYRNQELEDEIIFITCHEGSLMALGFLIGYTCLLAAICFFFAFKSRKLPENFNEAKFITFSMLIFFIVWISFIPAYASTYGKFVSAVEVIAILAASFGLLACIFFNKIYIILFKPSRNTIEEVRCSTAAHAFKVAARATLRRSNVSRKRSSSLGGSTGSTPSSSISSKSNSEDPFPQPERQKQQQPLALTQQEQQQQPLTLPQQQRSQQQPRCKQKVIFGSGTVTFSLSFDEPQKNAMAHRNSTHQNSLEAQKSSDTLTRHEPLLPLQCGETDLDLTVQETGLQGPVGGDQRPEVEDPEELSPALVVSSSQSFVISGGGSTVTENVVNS
The assay can be described thus: Fluo-4 calcium assay in cells transfected with hCaSR. In kind it is cell-based. Particulars: transient transfection; calcium chloride 2 mM, sucralose 0.5 mM, aspartame 0.85 mM, perillartine 50 μM, cinnamonitrile 100 μM, cyclamate 1 mM, NDHC 0.33 mM; six replicates.

For assay [1], the target named is T3, transmembrane domains of TAS1R (Homo sapiens, UniProt Q7RTX0+Q8TE23, C757R).
T3 sequence (Q8TE23 20-839): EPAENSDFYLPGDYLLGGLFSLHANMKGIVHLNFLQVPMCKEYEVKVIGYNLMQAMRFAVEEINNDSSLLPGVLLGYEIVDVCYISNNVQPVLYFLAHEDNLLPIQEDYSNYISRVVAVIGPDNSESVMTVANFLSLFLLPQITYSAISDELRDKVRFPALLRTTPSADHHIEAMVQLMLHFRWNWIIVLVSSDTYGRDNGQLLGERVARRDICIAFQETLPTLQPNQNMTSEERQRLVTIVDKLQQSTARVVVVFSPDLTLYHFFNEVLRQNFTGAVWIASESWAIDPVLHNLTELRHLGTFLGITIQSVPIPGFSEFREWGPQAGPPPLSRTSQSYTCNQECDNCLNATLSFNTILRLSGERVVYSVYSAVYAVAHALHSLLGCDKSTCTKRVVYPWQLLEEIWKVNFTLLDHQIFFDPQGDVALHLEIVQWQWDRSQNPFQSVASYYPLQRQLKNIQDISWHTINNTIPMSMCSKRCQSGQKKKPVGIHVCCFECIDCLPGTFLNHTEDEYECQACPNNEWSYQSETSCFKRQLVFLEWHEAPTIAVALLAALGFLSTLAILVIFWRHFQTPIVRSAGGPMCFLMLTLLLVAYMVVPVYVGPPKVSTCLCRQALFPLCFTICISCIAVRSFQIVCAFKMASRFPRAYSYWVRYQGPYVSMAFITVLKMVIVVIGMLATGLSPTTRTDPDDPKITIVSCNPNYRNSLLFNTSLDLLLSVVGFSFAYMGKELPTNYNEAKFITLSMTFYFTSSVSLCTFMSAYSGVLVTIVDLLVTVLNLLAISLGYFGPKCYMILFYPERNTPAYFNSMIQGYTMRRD
T3 sequence (Q7RTX0 21-852 C757R): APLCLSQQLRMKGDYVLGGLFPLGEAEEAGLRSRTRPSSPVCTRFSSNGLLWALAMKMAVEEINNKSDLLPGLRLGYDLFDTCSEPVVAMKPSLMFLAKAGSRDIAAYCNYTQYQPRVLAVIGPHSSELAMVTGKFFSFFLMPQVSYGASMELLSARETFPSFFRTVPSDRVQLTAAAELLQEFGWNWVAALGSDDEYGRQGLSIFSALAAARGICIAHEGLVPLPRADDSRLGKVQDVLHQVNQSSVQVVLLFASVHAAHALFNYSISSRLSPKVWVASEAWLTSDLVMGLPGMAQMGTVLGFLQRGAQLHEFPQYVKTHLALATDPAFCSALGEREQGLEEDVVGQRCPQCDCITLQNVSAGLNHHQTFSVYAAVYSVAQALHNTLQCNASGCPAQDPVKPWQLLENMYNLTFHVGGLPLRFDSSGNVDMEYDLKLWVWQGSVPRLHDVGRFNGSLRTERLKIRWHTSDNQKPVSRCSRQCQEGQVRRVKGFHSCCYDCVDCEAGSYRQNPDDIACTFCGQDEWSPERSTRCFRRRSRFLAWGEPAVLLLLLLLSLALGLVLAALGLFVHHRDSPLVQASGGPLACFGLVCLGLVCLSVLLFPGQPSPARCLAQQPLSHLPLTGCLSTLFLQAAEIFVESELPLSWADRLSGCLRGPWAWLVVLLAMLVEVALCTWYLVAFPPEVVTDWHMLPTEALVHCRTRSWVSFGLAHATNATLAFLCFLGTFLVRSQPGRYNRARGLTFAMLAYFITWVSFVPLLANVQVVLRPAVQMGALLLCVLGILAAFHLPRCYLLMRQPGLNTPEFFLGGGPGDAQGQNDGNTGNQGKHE
As to the kind of experiment: Identification of candidate sweetness enhancers that bind to the transmembrane domains. In kind it is binding. Particulars: identified by the applicants as candidate sweetness enhancers.

The test system of assay [2] is sweet sensitive panelists. The assay can be described thus: Ranking test of sweetness isointensity (R-index), sensory panel. In kind it is in vivo, human. As for the experimental part:
(§1) The sensory evaluation was conducted using a ranking method. Samples at ambient temperature were randomly presented in 15 ml blind aliquots (unidentifiable by panelists). Panels consisted of 10 sweet sensitive subjects and samples were presented in 3 replications over 1 session. After tasting each sample, the mouth was rinsed thoroughly with water at ambient temperature prior to tasting the next sample. […] They were asked to rank the samples from low to high with respect to perceived sweet taste.
as §1, with “taste. […] From ranking-style sensory tests, a matrix of responses (see table X below) is constructed such that each cell contains the number of times a given sample was ranked at a particular location.” for “taste.”
Essentially, the R-index is a measure of difference between two samples. The R-index has a chance level of detection of 50%. […] The critical value is the statistically relevant value that the derived R-index must deviate from (i.e greater or less than) in order to be considered significant.

Assay [3] concerns sweet sensitive panelists. The assay can be described thus: Forced choice test of sweetness versus sucrose, sensory panel. Type of assay: in vivo, human. Particulars: 1% sucrose, comparison with 60 ppm swingle extract; highest imaginable sweetness rates as 10. Here is the method:
A forced choice sensory evaluation of […] extract as a sweetener was performed as described in example 13 (see also for forced choice method, O'Mahony, 1992, J. Sens. Stud., 7:1-47), subject to the following modifications: […]

Where [4] appears, read: 0.5% sucrose in 1700 ppm cyclamate vs 1700 ppm cyclamate.
The mark [5] stands for this setting: 0.5% sucrose in 1700 ppm cyclamate vs 1900 ppm cyclamate.
[6] abbreviates: 0.5% sucrose in 1700 ppm cyclamate vs 2100 ppm cyclamate.
[7] abbreviates: 0.5% sucrose in 1700 ppm cyclamate vs 2300 ppm cyclamate.
The mark [8] stands for this setting: 0.5% sucrose in 1700 ppm cyclamate vs 2500 ppm cyclamate.
[9] abbreviates: 0.5% sucrose in aqueous 600 ppm p-ethoxybenzaldehyde vs 600 ppm p-ethoxybenzaldehyde.
The mark [10] stands for this setting: 0.5% sucrose in aqueous 600 ppm p-ethoxybenzaldehyde vs 700 ppm p-ethoxybenzaldehyde.

As to `C=C(C)[C@@H]1CC=C(/C=N/O)CC1` [perillartine], the “AVERAGE fluorescence increase, T1R2-TMD/Gα16gust44” value on T1R2-TMD (50 μM perillartine) is listed as 973.06 RFU. Also, at T1R2-TMD (perillartine, many cell clones, vs cells expressing Gα16gust44 but not T1R2-TMD), the “increase in fluorescence compared to the signal of the negative control” value was “greater than 10 times”. Further, the “AVERAGE fluorescence increase, Gα16gust44 ONLY (neg. control)” value in the assay on HEK293T/Gα16gust44 cells (50 μM perillartine) turned out to be 73.78 RFU. In the assay on HEK293T/Gα16gust44 cells (calcium chloride 2 mM, sucralose 0.5 mM, aspartame 0.85 mM, perillartine 50 μM, cinnamonitrile 100 μM, cyclamate 1 mM, NDHC 0.33 mM, six replicates), the “Neg. control (mock transfection) AVG” value is −379 RFU. In addition, the “hCaSR AVG” value at hCaSR was 73 RFU. Besides, the “binding to the transmembrane domains of TAS1R” value in assay [1] is reported as “bind to the transmembrane domains of TAS1R”.
Take `OC[C@H]1O[C@@](CO)(O[C@H]2O[C@H](CO)[C@@H](O)[C@H](O)[C@H]2O)[C@@H](O)[C@@H]1O` [sucrose, α-D-glucopyranosyl-(1→2)-β-D-fructofaranose]: the “cyclamate equivalent in sweetness added” value in assay [2] (0.5% sucrose in 1700 ppm cyclamate) is given as 200 ppm cyclamate. Moreover, the R-index in assay [2] (setting [4]) stood at 85%; in assay [2] (setting [5]), 60%; in assay [2] (setting [6]), 21%; in assay [2] (setting [7]), 7%; in assay [2] (setting [8]), 4%; in assay [2] (setting [9]) it was 68%. In assay [2] (setting [10]), this molecule came in with a R-index of 59%. In addition, the sucrose sample sweetness result in assay [2] (setting [4]) is recorded as “sweeter”; in assay [2] (setting [5]), “isosweet”; in assay [2] (setting [6]), “less sweet”; in assay [2] (setting [7]) it was “less sweet”; in assay [2] (setting [8]), “less sweet”. The molecule further registered a p-ethoxybenzaldehyde isointensity in assay [2] (0.5% sucrose in aqueous 600 ppm p-ethoxybenzaldehyde) of 700 ppm p-ethoxybenzaldehyde. Moreover, the mixture sample sweetness result is “sweeter” in assay [2] (setting [9]) and “isosweet” in assay [2] (setting [10]). In assay [2] (1700 ppm cyclamate+0.5% sucrose), this molecule displayed a cyclamate isointensity of 1900 ppm cyclamate. Moreover, in assay [3], the sweetness intensity rating amounted to 0.72.

(Values after US8124361B2, “Methods of screening for sweet taste modulators” (Givaudan SA, priority 2006, dated 2012).)
